Measured values from patent US8835629B2, “Anti-cancer agents” (The Walter and Eliza Hall Institute of Medical Research, priority 2010, dated 2014).
“Also recorded” adds a separate entry of the source.

Assays:
MCF-7 [1] = test: Antimitotic effects (G2/M cell cycle block, DNA staining, ModFit) on MCF-7; format: cell-based, human
Excerpt: For the initial studies two colon carcinoma cell lines (LIM1215 and SW480) and two breast cancer cell lines (MDA-MB-231 and MCF-7) were used. Taxol was used as comparator in these experiments (Table 1).

BaF/3 = test: MTT cell proliferation assay, BaF/3; format: cell-based; conditions: Mus musculus, BaF3, 72 h; BaF/3 murine B-cell progenitor line; MTT after 3 days of incubation; read-out: IC50, inhibition of proliferation
Experimental: (§1) Compound 2 was tested on a series of cell lines to determine its activity and selectivity (Table 2). Cell proliferation was measured using the MTT assay (for protocol see Example 2.6) after 3 days of incubation with the inhibitor.
(§2) • Cells plated at […] in 100 μl medium+5% FCS (+Adds^1): • Cells incubated overnight: • Titrate inhibitors in a fresh plate in 150 μl medium • Transfer 100 μl titrated compounds to matching wells of the cell plate. • Incubate a further 4 days: • Add 10 μl MTS^2 or MTT^3 for 1.5 to 2 hours and read on Multiscanner (wavelengths 492/690) ^1 Additives for culture of LIM cell lines: 10 μM thioglycerol, 0.025 U/ml insulin, 1 μg/ml hydrocortisone. ^2 3-(4,5-dimethylthiazol-2-yl)-5-(3-carboxymethoxyphenyl)-2-(4-sulfophenyl)-2H-tetrazolium. ^3 3-(4,5-Dimethylthiazol-2-yl)-2,5-diphenyltetrazolium bromide
(§3) Cells are trypsinized and washed ×2 in medium+5% FCS and plate out at 10^4 cells per well in 100 μl.
(§4) Incubate plates o/n 37° C.+5%-10% CO2 incubator.
(§5) Inhibitors are dissolved in DMSO to make 10 mM stocks and titrated in a 96 well plate in duplicate to use as the stock for the test plate. […]
(§6) Read OD of plates on Thermo Multiskan Ex, at 560/690 nm.

MDA-MB-231 = test: MTT cell proliferation assay, MDA-MB-231; format: cell-based; conditions: 72 h; MDA-MB-231 human breast carcinoma; MTT after 3 days of incubation; read-out: IC50, inhibition of proliferation
Experimental: as §1, §2, §3, §4, §5, §6

MCF-7 [2] = test: MTT cell proliferation assay, MCF-7; format: cell-based; conditions: MCF7, 72 h; MCF-7 human breast carcinoma; MTT after 3 days of incubation; read-out: IC50, inhibition of proliferation
Experimental: as §1, §2, §3, §4, §5, §6

[3] = Pharmacokinetics of Compound 2 in mouse plasma (RP-HPLC); format: in vivo; conditions: mice
Experimental: FIG. 6: Plots of plasma concentrations of compound 2 in mice following a single subcutaneous dose of 50 mg/kg. Each point corresponds to an individual mouse. A: Semi-log plot of calculated concentrations of Peak 1 values. B: Semi-log plot of values including all metabolite peaks. C: Mean and se values comparing Peak 1 only with all peaks.
The pharmacokinetic parameters for Compound 2 were determined following injection into mice.
Mouse blood was collected by cardiac puncture after anaesthesia by CO2 gas. Mice were subsequently euthanized. The blood was transferred to an EDTA tube to prevent clotting and the plasma collected after separation by centrifugation. For each sample 25 μl Plasma Was Added To 75 μl Cold 0.1% TFA (v/v) With 5 μM Hydrocortisone (HC) As an internal standard. These processed samples were stored at −20° C. until required. On thawing they were clarified by centrifugation and the extracts were analyzed on RP-HPLC.
Each 100 μl plasma extract was separated on a Zorbax SB-C18, 2.1×150 mm, 5μ column using a linear 50 min gradient of acetonitrile in 0.1% (v/v) TFA at a flow rate of 0.1 ml per minute and a column temperature of 45° C. Detection was at 250 nm.
The concentration of drug in the plasma was determined by the internal standard method of calibration by comparing the ratios of drug to HC peak areas relative to the known standards. Plasma concentrations of compound 2 in the mice from one pharmacokinetics experiment are plotted in FIG. 6

[4] = test system: U87MG(Δ2-7) (brain cancer cell line) tumours; test: Tumor xenograft study with U87MG(Δ2-7); format: in vivo, Balb/c nu/nu mice
Experimental: FIG. 8: U87MG(Δ2-7) tumor growth in nude mice. Tumor diameters were measured with external callipers every three days and tumor volume calculated with the formula: π/6×(L×W2).
Mice: Balb/c nu/nu male; 8 controls and 8 treated.
Cells inoculated: U87MG(Δ2-7) at 2.13×10^6 cells/tumour; two tumours per mouse.
(§7) Dose: Compound 2 at 20 mg/kg=100 μl of 4 mg/ml in water for injection per 20 g mouse. Control mice were injected with 100 μl water for injection.
Treatment and monitoring: Treatment commenced at Day 5 after inoculation. Mice were injected SC in abdomen three times per week (Mon, Wed, Fri), on alternating sides. Mice were weighed, tumour diameters measured in two dimensions and the health of the mice was monitored.
After mice were sacrificed: the tumours were dissected and weighed; spleens and livers were also weighed.

[5] = test system: H1437 (non-small cell lung cancer cell line) tumours; test: Tumor xenograft study with H1437; format: in vivo, Balb/c nu/nu mice
Experimental: FIG. 10: H1437 tumor growth in nude mice. Tumor diameters were measured with external callipers every three days and tumor volume calculated with the formula: π/6×(L×W2).
Mice: Balb/c nu/nu male; 8 controls and 8 treated; 5 weeks old.
Cells inoculated: H1437 (non-small cell lung cancer cell line) at 2×10^6 cells/tumour; two tumours per mouse.
as §7
Treatment and monitoring: Treatment commenced at Day 5 after inoculation. Mice were injected SC in abdomen three times per week, on alternating sides. Mice were weighed; tumour diameters measured in two dimensions and the health of the mice was monitored. Injections correspond to data points on the plots, with an additional treatment on Day 14 when no measurements were made.

[6] = 20 mg/kg SC three times per week, post mortem

COc1ccc(CNc2nc(NCc3ccc(CN)cc3)nc(NN3CC(=O)NC3=O)n2)cc1 (single isomer, unassigned) [Compound 2, 1-[4-(4-aminomethyl-benzylamino)-6-(4-methoxybenzylamino)-{1,3,5}-triazin-2-yl-amino]-imidazolidine-2,4-dione]
% of Taxol (proportion of cells in G2M test/proportion of cells in G2M Taxol) (MCF-7 [1]; 24 hrs, standard 1 μM Taxol): 102%
IC50 (MCF-7 [1]; Homo sapiens, MCF7, inhibitors added to cells in log-growth for 24 hrs, read-out: IC50 for progression through the cell cycle): 9 nM
IC50 (BaF/3): 30 nM
IC50 (MDA-MB-231): 10 nM
IC50 (MCF-7 [2]): 10 nM
Time therapeutically significant concentrations are maintained in the serum [3]: up to 10 hr
Plateau concentration in the blood stream ([3]; 50 mg/kg in aqueous solution, single subcutaneous dose): 60 µM
Level remaining in the blood stream for 6-10 hours ([3]; 50 mg/kg in aqueous solution, for 6-10 hours): up to 6 μM
half-life ([3]; mouse, plasma, subcutaneous, 50 mg/kg in aqueous solution, read-out: Elimination half-life (converted)): ~1.5 h
Tumour growth (tumour volume) ([4]; 20 mg/kg SC three times per week from day 5, terminated at 14 days): significant difference in volume between control and treated tumours; also recorded: reduced the growth of the tumours
Liver or spleen weights vs vehicle control [4, 6]: no significant difference
Tumor weight [4, 6]: greatly reduced
Tumour growth (tumour volume) ([5]; 20 mg/kg SC three times per week from day 5, terminated at 26 days): Clear difference; also recorded: significant difference in volume between control and treated tumours
Size of dissected tumours ([5]; 20 mg/kg three times per week, after sacrifice): clear difference in size
